In publication PMC8952364, “Polyphenols as Inhibitors of Antibiotic Resistant Bacteria—Mechanisms Underlying Rutin Interference with Bacterial Virulence” (Pharmaceuticals, 2022):
≈ marks a conversion by molar mass, not a printed value. Where two headings read alike, the source gives them in different places.

Columns and labels:
S. infantis 1371/1 = assay: Antimicrobial microdilution assay (MIC/MBC); format: cell-based, Salmonella Infantis; details: Salmonella enterica, 1371/1; for MIC: 37 °C, 24 h, read-out: MIC; for MBC: subcultivation, 24 h at 37 °C, read-out: MBC
Experimental: (§1) The bacterial suspension (0.5 Mc Farland) was prepared, and twenty-fold dilutions of these suspensions were mixed in a 1:10 ratio with the corresponding polyphenol dilution (0.0039–1 mg/mL). Microtiter plates were incubated at 37 °C for 24 h. The lowest concentrations without visible growth (under a binocular microscope) were defined as MICs. The bactericidal concentrations (MBCs) were determined by serial subcultivation of 2 μL of the well’s content and further incubation for 24 h at 37 °C. Streptomycin (SigmaAldrich, Darmstadt, Germany) was used as a positive control. The polyphenols were obtained from Extrasynthese, Rhone, France (rutin, isoquercitrin) and SigmaAldrich, Germany (hesperetin, hesperidin, naringenin, naringin, taxifolin, morin, chlorogenic acid, ferulic acid, p-coumaric acid, and gallic acid). The stock compounds were prepared in ethanol (30%), and adequate ethanol concentrations were used as the negative control in the assays. Experiments were done in triplicate.

[1] = test system: P. aeruginosa IBRS P001 biofilm; assay: Crystal violet antibiofilm assay (biofilm formation); format: cell-based, Pseudomonas aeruginosa; details: MIC and sub-MIC, 24 h, crystal violet, Figure 1
Experimental: After incubation, each well was washed twice with sterile PBS (phosphate-buffered saline, pH 7.4) and fixed with methanol for 10 min. After removal of methanol the plate was air-dried. The biofilm was stained with 0.1% crystal violet (Bio-Merieux, Marcy l’Etoile, France) for 30 min. The plate was washed with water, air dried, and the stain was dissolved with 200 μL of 96% ethanol (Zorka, Sabac, Serbia). The absorbance was read at 620 nm on a Multiskan™ FC microplate photometer (Thermo Scientific™, Waltham, MA, USA). The results are presented as biofilm forming capacity (%) compared to control.

HaCaT cells = assay: Cytotoxicity in HaCaT cell line (crystal violet assay); format: cell-based, human; details: for IC50: Homo sapiens, 24 h treatment, crystal violet, read-out: IC50 (compound concentration that inhibited 50% of the cell growth)
Experimental: For determination of the polyphenols’ cytotoxic effect, a crystal violet assay was used, with modifications. The cytotoxic effect of polyphenols was analyzed on spontaneously immortalized human skin keratinocytes (HaCaT, AddexBio No. T0020001, San Diego, CA, USA) cell lines. […] Cells (1 × 10^4 cells/well) were seeded in a 96-well plate (Sarstedt, Nümbrecht, Germany) 24 h before treatment. […] Cells were incubated with the compounds for 24 h. […] After crystal violet was removed, the plates were washed in a stream of tap water and left to air-dry at room temperature for 24 h. The absorbance was measured in a microplate reader (Multiskan™ FC Microplate Photometer, Thermo Scientific™) at 590 nm. The results were expressed as IC50 value in μg/mL. The criterion used to categorize the cytotoxic activity polyphenols was as follows: […] All analyses were performed in triplicate; each replicate was also quantified three times. Data were expressed as mean standard deviation, where applicable.

K. pneumoniae IT977 = assay: Antimicrobial microdilution assay (MIC/MBC); format: cell-based, Klebsiella pneumoniae; details: Klebsiella pneumoniae, IT977; for MIC: read-out: MIC; for MBC: subcultivation, 24 h at 37 °C, read-out: MBC
Experimental: as §1

K. pneumoniae Ni9 = assay: Antimicrobial microdilution assay (MIC/MBC); format: cell-based, Klebsiella pneumoniae; details: Klebsiella pneumoniae, NI9; for MIC: read-out: MIC; for MBC: subcultivation, 24 h at 37 °C, read-out: MBC
Experimental: as §1

P. aeruginosa IBRS P001 = assay: Antimicrobial microdilution assay (MIC/MBC); format: cell-based, Pseudomonas aeruginosa; details: Pseudomonas aeruginosa, IBRSP001; for MIC: 37 °C, 24 h, read-out: MIC; for MBC: subcultivation, 24 h at 37 °C, read-out: MBC
Experimental: as §1

P. aeruginosa MMA83 = assay: Antimicrobial microdilution assay (MIC/MBC); format: cell-based, Pseudomonas aeruginosa; details: Pseudomonas aeruginosa, MMA83; for MIC: 37 °C, 24 h, read-out: MIC; for MBC: subcultivation, 24 h at 37 °C, read-out: MBC
Experimental: as §1

[2] = test system: Methicillin resistant S. aureus IBRS MRSA 011; assay: Antimicrobial microdilution assay (MIC/MBC); format: cell-based, Staphylococcus aureus; details: Staphylococcus aureus, MRSA
Experimental: as §1

[3] = test system: Escherichia coli K-12 MG1655, Salmonella enterica serovar Typhimurium LT2, and Pseudomonas putida ATCC 795; set-up: method as in PMID 18045389; details: cited from earlier work
A. baumannii S2/2 = assay: Antimicrobial microdilution assay (MIC/MBC); format: cell-based, Acinetobacter baumannii; details: Acinetobacter baumannii, S2/2; for MIC: 37 °C, 24 h, read-out: MIC; for MBC: subcultivation, 24 h at 37 °C, read-out: MBC
Experimental: as §1

A. baumannii 6077/12 = assay: Antimicrobial microdilution assay (MIC/MBC); format: cell-based, Acinetobacter baumannii; details: Acinetobacter baumannii, 6077/12; for MIC: 37 °C, 24 h, read-out: MIC; for MBC: subcultivation, 24 h at 37 °C, read-out: MBC
Experimental: as §1

A. xylosoxidans 37F = assay: Antimicrobial microdilution assay (MIC/MBC); format: cell-based, Achromobacter xylosoxidans; details: Achromobacter xylosoxidans, 37F; for MIC: 37 °C, 24 h, read-out: MIC; for MBC: subcultivation, 24 h at 37 °C, read-out: MBC
Experimental: as §1

E. coli IBRS E003 = assay: Antimicrobial microdilution assay (MIC/MBC); format: cell-based, Escherichia coli; details: Escherichia coli, IBRSE003; for MIC: 37 °C, 24 h, read-out: MIC; for MBC: subcultivation, 24 h at 37 °C, read-out: MBC
Experimental: as §1

E. coli IMD989 = assay: Antimicrobial microdilution assay (MIC/MBC); format: cell-based, Escherichia coli; details: Escherichia coli, IMD989; for MIC: 37 °C, 24 h, read-out: MIC; for MBC: subcultivation, 24 h at 37 °C, read-out: MBC
Experimental: as §1

[4] = test system: eleven antibiotic resistant strains of bacteria; assay: Antimicrobial assay, summary over the examined strains; format: cell-based; details: summary of Table 1
Experimental: as §1

[5] = test system: E. coli (fluoroquinolones and ampicillin-resistant); set-up: method as in A previous investigation; details: ref A previous investigation; cited from earlier work
[6] = subcultivation, 24 h at 37 °C, read-out: MBC
[7] = restated in the discussion for two strains examined

| SMILES | MIC (S. infantis 1371/1) | MBC (S. infantis 1371/1) | IC50 (HaCaT cells; HaCaT) | MIC (K. pneumoniae IT977; 37 °C, 24 h) | MBC (K. pneumoniae IT977) | MIC (K. pneumoniae Ni9; 37 °C, 24 h) | MBC (K. pneumoniae Ni9) | MIC (P. aeruginosa IBRS P001) | MBC (P. aeruginosa IBRS P001) | MIC (P. aeruginosa MMA83) | MBC (P. aeruginosa MMA83) | MIC (A. baumannii S2/2) | MBC (A. baumannii S2/2) | MIC (A. baumannii 6077/12) | MBC (A. baumannii 6077/12) | MIC (A. xylosoxidans 37F) | MBC (A. xylosoxidans 37F) | MIC (E. coli IBRS E003) | MBC (E. coli IBRS E003) | MIC (E. coli IMD989) | further results |
| --- | --- | --- | --- | --- | --- | --- | --- | --- | --- | --- | --- | --- | --- | --- | --- | --- | --- | --- | --- | --- | --- |
| COc1ccc([C@@H]2CC(=O)c3c(O)cc(O)cc3O2)cc1O [Hesperetin, hesperetin] | > 1000 µg/mL | > 1000 µg/mL | > 1000 µg/mL | > 1000 µg/mL | > 1000 µg/mL | 1000 µg/mL (≈ 3.31 mM) | 1000 µg/mL (≈ 3.31 mM) | 500 µg/mL (≈ 1.65 mM) | 1000 µg/mL (≈ 3.31 mM) | 1000 µg/mL (≈ 3.31 mM) | 1000 µg/mL (≈ 3.31 mM) | 500 µg/mL (≈ 1.65 mM) | 500 µg/mL (≈ 1.65 mM) | 500 µg/mL (≈ 1.65 mM) | 500 µg/mL (≈ 1.65 mM) | 1000 µg/mL (≈ 3.31 mM) | 1000 µg/mL (≈ 3.31 mM) | > 1000 µg/mL | > 1000 µg/mL | > 1000 µg/mL | reduction of biofilm formation (biomass), in words [1]: significant (****, p < 0.0001) reduction; cytotoxicity towards HaCaT, in words (HaCaT cells): non-cytotoxic properties; MIC ([2]; 37 °C, 24 h, read-out: MIC): 500 µg/mL (≈ 1.65 mM); MBC [2, 6]: 1000 µg/mL (≈ 3.31 mM); MIC [3]: ≥ 1000 µg/mL; MBC (E. coli IMD989): > 1000 µg/mL; MIC towards a range of antibiotic-resistant bacterial strains [4]: ≥ 500 µg/mL |
| O=C(O)/C=C/c1ccc(O)cc1 [p-Coumaric Acid, p-coumaric acid] | 1000 µg/mL (≈ 6.09 mM) | 1000 µg/mL (≈ 6.09 mM) | > 1000 µg/mL | 1000 µg/mL (≈ 6.09 mM) | 1000 µg/mL (≈ 6.09 mM) | 1000 µg/mL (≈ 6.09 mM) | 1000 µg/mL (≈ 6.09 mM) | 500 µg/mL (≈ 3.05 mM) | 1000 µg/mL (≈ 6.09 mM) | 500 µg/mL (≈ 3.05 mM) | 1000 µg/mL (≈ 6.09 mM) | 500 µg/mL (≈ 3.05 mM) | 500 µg/mL (≈ 3.05 mM) | 500 µg/mL (≈ 3.05 mM) | 500 µg/mL (≈ 3.05 mM) | 1000 µg/mL (≈ 6.09 mM) | 1000 µg/mL (≈ 6.09 mM) | > 1000 µg/mL | > 1000 µg/mL | 1000 µg/mL (≈ 6.09 mM) | MIC [5]: 1000 µg/mL (≈ 6.09 mM); cytotoxicity category (HaCaT cells; HaCaT, maximal tested concentrations (1 mg/mL)): no cytotoxicity (IC50 > 501 µg/mL = no cytotoxicity); MIC ([2]; 37 °C, 24 h, read-out: MIC): 500 µg/mL (≈ 3.05 mM); MBC [2, 6]: 1000 µg/mL (≈ 6.09 mM); MBC (E. coli IMD989): 1000 µg/mL (≈ 6.09 mM) |
| O=C(/C=C/c1ccc(O)c(O)c1)O[C@@H]1C[C@](O)(C(=O)O)C[C@@H](O)[C@H]1O [Chlorogenic Acid, chlorogenic acid] | > 1000 µg/mL | > 1000 µg/mL | 279 ± 8 µg/mL (≈ 0.787 mM) | > 1000 µg/mL | > 1000 µg/mL | > 1000 µg/mL | > 1000 µg/mL | 500 µg/mL (≈ 1.41 mM) | 1000 µg/mL (≈ 2.82 mM) | 1000 µg/mL (≈ 2.82 mM) | > 1000 µg/mL | 1000 µg/mL (≈ 2.82 mM) | > 1000 µg/mL | 1000 µg/mL (≈ 2.82 mM) | 1000 µg/mL (≈ 2.82 mM) | 1000 µg/mL (≈ 2.82 mM) | > 1000 µg/mL | > 1000 µg/mL | > 1000 µg/mL | > 1000 µg/mL | MIC (K. pneumoniae IT977; [7]): > 1000 µg/mL; MIC (K. pneumoniae Ni9; [7]): > 1000 µg/mL; MBC ([2]; 24 h): 1000 µg/mL (≈ 2.82 mM); MIC ([2]; 24 h): 500 µg/mL (≈ 1.41 mM); MBC (E. coli IMD989): > 1000 µg/mL |
